According to US6586439B2, “Pharmaceutically active compounds” (Pfizer Inc., priority 1999, dated 2003):

Test system: cGMP PDE5
Test: In vitro PDE inhibitory activity against cGMP PDE5 (batch method or scintillation proximity assay)
Type: biochemical, human or rabbit
Experimental: In vitro PDE inhibitory activities against cyclic guanosine 3′,5′-monophosphate (cGMP) and cyclic adenosine 3′,5′-monophosphate (cAMP) phosphodiesterases were determined by measurement of their IC50 values (the concentration of compound required for 50% inhibition of enzyme activity).
The required PDE enzymes were isolated from a variety of sources, including human corpus cavernosum, human and rabbit platelets, human cardiac ventricle, human skeletal muscle and bovine retina, essentially by the method of W. J. Thompson and M. M. Appleman (Biochem., 1971, 10, 311). In particular, the cGMP-specific PDE (PDE5) and the cGMP-inhibited cAMP PDE (PDE3) were obtained from human corpus cavernosum tissue, human platelets or rabbit platelets; the cGMP-stimulated PDE (PDE2) was obtained from human corpus cavernosum; the calcium/calmodulin (Ca/CAM)-dependent PDE (PDE1) from human cardiac ventricle; the cAMP-specific PDE (PDE4) from human skeletal muscle; and the photoreceptor PDE (PDE6) from bovine retina. Phosphodiesterases 7-11 were generated from full length human recombinant clones transfected into SF9 cells.
Assays were performed either using a modification of the “batch” method of W. J. Thompson et al. (Biochem., 1979, 18, 5228) or using a scintillation proximity assay for the direct detection of AMP/GMP using a modification of the protocol described by Amersham plc under product code TRKQ7090/7100. In summary, the effect of PDE inhibitors was investigated by assaying a fixed amount of enzyme in the presence of varying inhibitor concentrations and low substrate, (cGMP or cAMP in a 3:1 ratio unlabelled to [^3H]-labeled at a conc ˜1/3 Km) such that IC50 ≅Ki. The final assay volume was made up to 100 μl with assay buffer [20 mM Tris-HCl pH 7.4, 5 mM MgCl2, 1 mg/ml bovine serum albumin]. Reactions were initiated with enzyme, incubated for 30-60 min at 30° C. to give <30% substrate turnover and terminated with 50 μl yttrium silicate SPA beads (containing 3 mM of the respective unlabelled cyclic nucleotide for PDEs 9 and 11). Plates were re-sealed and shaken for 20 min, after which the beads were allowed to settle for 30 min in the dark and then counted on a TopCount plate reader (Packard, Meriden, Conn.) Radioactivity units were converted to % activity of an uninhibited control (100%), plotted against inhibitor concentration and inhibitor IC50 values obtained using the ‘Fit Curve’ Microsoft Excel extension.

Row | Structure (SMILES) | Percentage inhibition of PDE 5 (Concentration 100 nM) | Percentage inhibition of PDE 5 (Concentration 10 nM)
1 | CCCOc1ccc(S(=O)(=O)N2CCN(CC)CC2)cc1-c1nc2[nH]cnc2c(=O)[nH]1 [Example 1, 2-[5-(4-Ethylpiperazin-1-ylsulfonyl)-2-n-propoxyphenyl]-9H-purin-6-one] | 47 | 
2 | CCCOc1ccc(S(=O)(=O)N2CCN(CC)CC2)cc1-c1nc2c(ncn2-c2ccc(N)cc2)c(=O)[nH]1 [Example 4, 9-(4-Aminophenyl)-2-[5-(4-ethylpiperazin-1-ylsulfonyl)-2-n-propoxy-phenyl]purin-6-one] |  | 74.1
3 | CCCOc1ccc(S(=O)(=O)N2CCN(C)CC2)cc1-c1nc2[nH]c(-c3cccnc3)nc2c(=O)[nH]1 [Example 5, 2-[5-(4-Methylpiperazin-1-ylsulfonyl)-2-n-propoxyphenyl]-8-(pyridin-3-yl)-9H-purin-6-one] | 48 | 
4 | CCCCOc1ncc(S(=O)(=O)N2CCN(CC)CC2)cc1-c1nc2c(nc(Cc3ccccc3)n2CCC)c(=O)[nH]1 [Example 7, 8-Benzyl-2-[2-n-butoxy-5-(4-ethylpiperazin-1-ylsulfonyl)pyridin-3-yl]-9-n-propylpurin-6-one] |  | 80.3
5 | CCCOc1ccc(S(=O)(=O)N2CCN(c3ccccn3)CC2)cc1-c1nc2c(ncn2CCC)c(=O)[nH]1 [Example 9, 2-(2-n-Propoxy-5-[4-{pyridin-2-yl}piperazin-1-ylsulfonyl]phenyl)-9-n-propylpurin-6-one] |  | 100
